Data: patent US12134620B2 (ARAXES PHARMA LLC, priority 2018, dated 2024)

Target: T1, KRAS G12C 1-169, his-tagged protein, GDP-loaded (Homo sapiens, UniProt P01116, G12C)
T1 construct: KRAS G12C 1-169, his-tagged protein, GDP-loaded; His tag
Experiment: Biochemical assay: covalent modification of KRAS G12C, analysed by mass spectrometry (RapidFire/TOF or Q-Exactive)
Type: binding
Conditions: Modification activity, modification percentage from MS peak intensities
Procedure: Test compounds are prepared as 10 mM stock solutions in DMSO (Fisher cat. #BP-231-100). KRAS G12C 1-169, his-tagged protein, GDP-loaded is diluted to 2 μM or 0.5 μM in buffer (20 mM Hepes, 150 mM NaCl, 1 mM MgCl2). Compounds are tested for activity as follows:
Compounds are diluted to 50× final test concentration in DMSO in 96-well storage plates. Compound stock solutions are vortexed before use and observed carefully for any sign of precipitation. Dilutions are as follow: • For 32 μM final compound concentration, compounds are diluted to 1600 μM (3 μL 10 mM compound stock+15.75 μL DMSO and mixed well by pipetting. • For 8 μM final compound concentration, compounds are diluted to 400 μM (2 μL 10 mM compound stock+48 μL DMSO) and mixed well by pipetting. 49 μL of the stock protein solution is added to each well of a 96-well PCR plate (Fisher cat #1423027). 1 μl of the diluted 50× compounds are added to appropriate wells in the PCR plate using 12-channel pipettor. Reactions are mixed carefully and thoroughly by pipetting up/down with a 200 μL multi-channel pipettor. The plate is sealed well with aluminum plate seal, and protein and compound are allowed to react for a desired amount of time. 5 μL of 2% formic acid (Fisher cat #A117) in de-ionized H2O is then added to each well followed by mixing with a pipette to quench the reaction. The plate is then resealed with aluminum seal and stored frozen on dry ice until analyzed as described below.
The above described assays are analyzed by mass spectrometry according to one of the following two procedures:
The MS instrument is set to positive polarity, 2 GHz resolution, and low mass (1700) mode and allowed to equilibrate for 30 minutes. The instrument is then calibrated, switched to acquisition mode and the appropriate method loaded.
After another 30 minute equilibration time, a blank batch (i.e., buffer) is run to ensure equipment is operating properly. The samples are thawed at 37° C. for 10 minutes, briefly centrifuged, and transfer to the bench top. Wells A1 and H12 are spiked with 1 μL 500 μM internal standard peptide, and the plates centrifuged at 2000×g for 5 minutes. The method is then run and masses of each individual well recorded.
The masses (for which integration data is desired) for each well are pasted into the platemap and exported from the analysis. Masses for the internal standards are exported as well. The data at 50 ppm is extracted for the +19 charge state, and identity of well A1 is assigned using the internal standard spike and integrated. Peak data is exported as a TOF list and the above steps are repeated individually, for the +20, +21, +22, +23, +24, and +25 charge states.
The masses and peak intensities of KRAS G12C protein species are measured using a Dionex RSLCnano system (Thermo Scientific) connected to a Q Exactive Plus mass spectrometer (Thermo Scientific).
20 μL of sample is each loaded onto a Aeris™ 3.6 μm WIDEPORE C4 200 Å, LC Column 50×2.1 mm column maintained at 40° C. at a flow rate of 600 μL/min with 80% Solvent A (0.1% formic acid in H2O) and 20% Solvent B (0.1% formic acid in acetonitrile). The liquid chromatography conditions are 20% solvent B for 1 minute, 20% to 60% solvent B for 1.5 minutes, 60% to 90% solvent for 0.5 minute, 90% solvent B for 0.2 minute, 90% to 20% solvent B for 0.2 minute, and then equilibrated for 1.6 minute before the following sample injection. The flow rate is maintained at 600 μL/min throughout the sample analysis.
The mass spectrometer is operated in profile mode at a resolution of 17500, 5 microscans, using 50 msec max injection time and an AGC target of 1×10^6, and a full mass range from 800-1850 m/z is recorded. The intact protein mode is applied for optimal ion transfer and maximum sensitivity. The ionization method is electrospray ionization, which used a spray voltage of 4 kV, sheath gas flow set to 50 AU, auxiliary gas flow set to 10 AU and sweep gas flow set to 1 AU. […]

SMILES	Binding %
C=CC(=O)N1CC2(CCN(c3nc(N4CCCC4)nc(-c4c(C)ccc5[nH]ncc45)c3C#N)C2)C1 [Compound I-1, 4-(2-acryloyl-2,6-diazaspiro[3.4]octan-6-yl)-6-(5-methyl-1H-indazol-4-yl)-2-(pyrrolidin-1-yl)pyrimidine-5-carbonitrile]	+++ (+++ indicates binding activity greater than 85%)
C=CC(=O)N1CC2(CCN(c3nc(OC[C@@H]4CCCN4C)nc(-c4c(C)ccc5[nH]ncc45)c3C#N)C2)C1 [Compound I-2, 4-(2-acryloyl-2,6-diazaspiro[3.4]octan-6-yl)-6-(5-methyl-1H-indazol-4-yl)-2-(((S)-1-methylpyrrolidin-2-yl)methoxy)pyrimidine-5-carbonitrile]	+++ (+++ indicates binding activity greater than 85%)
C=CC(=O)N1CC2(CCN(c3nc(N4CCOCC4)nc(-c4c(C)ccc5[nH]ncc45)c3C#N)C2)C1 [Compound I-3, 4-(2-acryloyl-2,6-diazaspiro[3.4]octan-6-yl)-6-(5-methyl-1H-indazol-4-yl)-2-morpholinopyrimidine-5-carbonitrile]	+++ (+++ indicates binding activity greater than 85%)
C=CC(=O)N1CC2(CCN(c3nc(N4CC(N(C)C)C4)nc(-c4c(C)ccc5[nH]ncc45)c3C#N)C2)C1 [Compound I-4, 4-(2-acryloyl-2,6-diazaspiro[3.4]octan-6-yl)-2-(3-(dimethylamino)azeti-din-1-yl)-6-(5-methyl-1H-indazol-4-yl)pyrimidine-5-carbonitrile]	+++ (+++ indicates binding activity greater than 85%)
C=CC(=O)N1CC2(CCN(c3nc(OCCCN(C)C)nc(-c4c(C)ccc5[nH]ncc45)c3C#N)C2)C1 [Compound I-5, 4-(2-acryloyl-2,6-diazaspiro[3.4]octan-6-yl)-2-(3-(dimethylamino)pro-poxy)-6-(5-methyl-1H-indazol-4-yl)pyrimidine-5-carbonitrile]	+++ (+++ indicates binding activity greater than 85%)
C=CC(=O)N1CC2(CCN(c3nc(OC[C@H]4CCCN4C)nc(-c4c(C)ccc5[nH]ncc45)c3C#N)C2)C1 [Compound I-6, 4-(2-acryloyl-2,6-diazaspiro[3.4]octan-6-yl)-6-(5-methyl-1H-indazol-4-yl)-2-(((R)-1-methylpyrrolidin-2-yl)methoxy)pyrimidine-5-carbonitrile]	+++ (+++ indicates binding activity greater than 85%)
C=CC(=O)N1CC2(CCN(c3nc(OCCc4ccccn4)nc(-c4c(C)ccc5[nH]ncc45)c3C#N)C2)C1 [Compound I-8, 4-(2-acryloyl-2,6-diazaspiro[3.4]octan-6-yl)-6-(5-methyl-1H-indazol-4-yl)-2-(2-(pyridin-2-yl)ethoxy)pyrimidine-5-carbonitrile]	+++ (+++ indicates binding activity greater than 85%)
C=CC(=O)N1CC2(CCN(c3nc(C#N)nc(-c4c(C)ccc5[nH]ncc45)c3C#N)C2)C1 [Compound I-10, 4-(2-acryloyl-2,6-diazaspiro[3.4]octan-6-yl)-6-(5-methyl-1H-indazol-4-yl)pyrimidine-2,5-dicarbonitrile]	++ (++ indicates binding activity from 50 to 85%)
C=CC(=O)N1CC2(CCN(c3nc(-n4ccnc4)nc(-c4c(C)ccc5[nH]ncc45)c3C#N)C2)C1 [Compound I-11, 4-(2-acryloyl-2,6-diazaspiro[3.4]octan-6-yl)-2-(1H-imidazol-1-yl)-6-(5-methyl-1H-indazol-4-yl)pyrimidine-5-carbonitrile]	+++ (+++ indicates binding activity greater than 85%)
C=CC(=O)N1CC2(CCN(c3nc(OCCN4CCCC4)nc(-c4c(C)ccc5[nH]ncc45)c3C#N)C2)C1 [Compound I-12, 4-(2-acryloyl-2,6-diazaspiro[3.4]octan-6-yl)-6-(5-methyl-1H-indazol-4-yl)-2-(2-(pyrrolidin-1-yl)ethoxy)pyrimidine-5-carbonitrile]	++ (++ indicates binding activity from 50 to 85%)
